Test results reported in patent US20220305401A1, “EUTECTIC EXTRACTION OF SOLIDS” (Givaudan SA, priority 2019, published 2022).

Legend:
[1] = format: physicochemical
From the text: To further improve the washing procedure that leads to a high carnosic acid content in the final extract and, concomitantly, a strong antioxidant activity, here we studied the effect of the addition of sodium chloride on the CA hydrosolubility.

[2] = Solubilization of disperse red 13 by urea:betaine aqueous solutions (absorbance at 525 nm); format: physicochemical; settings: distilled water, room temperature
Description: The desired amounts of betaine and/or urea powders were dissolved in distilled water or phosphate buffer solution (PBS, 67 mM) at pH 7.0 to form a 100 mL solution.
The concentration of urea in the urea:betaine mixtures in water or PBS ranged from 0.025 to 8.3 M.
The solutions of urea and/or betaine in PBS were adjusted to provide a pH of 7.0 using concentrated HCl. The volume of added HCl was taken into account when calculating the final molar concentration of betaine and/or urea.
10 mL of the osmolyte solution was added to a vial containing 5 mg red disperse 13 in excess ([…], Sigma), then magnetically stirred (500 rpm) for 16 hours and filtrated (0.45 μm). The concentration of red disperse 13 in the filtrate is measured at 525 nm (Shimadzu UV-1800, Japan). […]
These liquid mixtures were mixed with an excess of disperse red 13 used as a hydrophobic probe to screen the solubilization properties of the solvents. It can be observed from FIG. 1 that the disperse red 13 absorbance increases exponentially 525 nm approx.) with increasing the deep eutectic concentration in water. […]

[3] = Saturation level of urea, betaine and urea:betaine mixtures in water; format: physicochemical
From the text: The concentrations of pure urea solution in water or PBS ranged from 0.025 to 10.1 M, the latter value corresponding to the saturation level of urea. Finally, the concentrations of pure betaine in water or PBS ranged from 0.025 to 5.4 M, this latter corresponding to the saturation level of betaine. In this Example, anhydrous urea:betaine (U:B) mixtures at different molar ratios were first prepared, then solubilized in distilled water at different concentrations ranging from 1.5 g/L to the saturation level which was 607, 813, 985, 957, 795, 741, and 633 g/L for the U:B ratios 1:0, 3:1, 2:1, 1:1, 1:2, 1:3, and 0:1, respectively.

| water solubility [1] | hydrotropic behavior for disperse red 13 [2] | saturation level ([3]; distilled water) | saturation level ([3]; water or PBS) | Compound |
| --- | --- | --- | --- | --- |
| strongly reduced |  |  |  | CC(C)c1cc2c(c(O)c1O)[C@@]1(C(=O)O)CCCC(C)(C)[C@@H]1CC2 [CA, carnosic acid] |
|  | too modestly to be qualified as such | 633 g/L | 5.4 M | C[N+](C)(C)CC(=O)O [betaine] |
|  | displays a hydrotropic behavior | 607 g/L | 10.1 M | NC(N)=O [urea, Urea] |
